Assay results: ChEMBL document CHEMBL1201862, “PubChem BioAssay data set” (2004)
Structures can show the parent of a compound that is named as a salt. The source made the active and inactive calls.

Experiments:
[1] = OVCAR8 cell viability loss – plate reader, dry powder samples, PAX8 project, dose response (AID 743197); type: functional, cell-based; details: OVCAR-8
[2] = molecular target: Paired box protein Pax-8 (Homo sapiens, UniProt Q06710); assay: PAX8 transcriptional activity inhibition in RMG-I – RMG-I cells, luciferase, cherry-pick, dose response (AID 687027); type: functional, cell-based;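 also: luciferase reporter driven by Pax8 target thyroperoxidase promoter measured by SteadyGlo luminescence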
[3] = A2780 cell killing – plate reader, dry powder samples, cytotoxicity control, dose response (AID 743046); type: functional, cell-based
[4] = Late stage assay provider results from the probe development effort to identify inhibitors of the Plasmodium falciparum M18 Aspartyl Aminopeptidase (M18AAP): radiolabel-based cell-based dose response assay to identify compounds that inhibit P. falciparum growth in RBCs, Set 2..; type: functional
[5] = viability loss in A549 lung cells – cell-based, 24 h, CellTiter-Glo luminescence, cherry-picks, cytotoxicity control, dose response (AID 1053115); type: functional; details: A549, 24 h
[6] = inhibitors of non-replicating M. tuberculosis, dose response, luciferase, dry powder (AID 651620); type: functional; details: Mycobacterium tuberculosis
[7] = inhibitors of non-replicating M. tuberculosis, dose response, luciferase, dry powder (AID 651619); type: functional; details: Mycobacterium tuberculosis
[8] = HepG2 hepatoma cell viability loss – plate reader, dry powder, cytotoxicity control, dose response (AID 651947); type: functional, cell-based
[9] = molecular target: NS3 (Hepatitis C virus, UniProt A3EZJ3); assay: NS3h DNA-binding inhibition IC50 – biochemical, fluorescence polarization, ChemBridge library, dose response (AID 743264)
[10] = viability loss in HepG2 hepatoma cells – cell-based, cherry-picks, set 5, cytotoxicity control, dose response (AID 1053118); type: functional
[11] = viability loss in HEK293 kidney cells – cell-based, cherry-picks, set 5, cytotoxicity control, dose response (AID 1053117); type: functional
[12] = molecular target: Metabotropic glutamate receptor 7 (Homo sapiens, UniProt Q14831); assay: potentiation of glutamate EC20 at mGlu7 – cell-based, calcium mobilization, Galpha15, dose response (AID 743384); type: functional
[13] = viability loss in MITF-independent A375 cells – cell-based, CellTiter-Glo luminescence, dry powder, set 2, counter-screen for MITF inhibitor project, dose response (AID 624489); type: functional; details: A-375;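 also: actives are compounds lowering A375 viability meaning general cytotoxicity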
[14] = cytotoxicity in MITF-independent A375 cells – cell-based, CellTiter-Glo luminescence, dry powder, set 4, counter-screen for MITF inhibitor project, dose response (AID 624364); type: functional; details: A-375;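 also: A375 melanoma cells are MITF independent so this is a counter screen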
[15] = rise of 2N DNA cells, HeLa – IC50, dose response (AID 1117349); type: functional, cell-based
[16] = rise of 4N DNA cells, HeLa – IC50, dose response (AID 1117351); type: functional, cell-based
[17] = cytotoxicity toward Colo320 cells – cell-based, CellTiter-Glo luminescence, IC50, dose response (AID 1117334); type: functional; details: COLO 320
[18] = cytotoxicity toward HT-29 cells – cell-based, CellTiter-Glo luminescence, IC50, dose response (AID 1117330); type: functional
[19] = Reduced DLD-1 viability, concentration-response, CellTiter-Glo luminescence (AID 1117352); type: functional
[20] = RKO cell viability reduction, dose response, CellTiter-Glo luminescence (AID 1117322); type: functional
[21] = cytotoxicity toward HCT116 cells – cell-based, CellTiter-Glo luminescence, IC50, dose response (AID 1117332); type: functional; details: HCT-116
[22] = CellTiter-Glo luminescence survival assay, SW480 colon tumor line, concentration-response curve, half-maximal inhibitory concentration (AID 1117338); type: functional
[23] = SNU-C1 cell viability reduction, dose response, CellTiter-Glo luminescence (AID 1117323); type: functional, cell-based
[24] = HCT116 cell viability decrease, GSK3B pretreatment – CellTiter-Glo, IC50, dose response (AID 1117339); type: functional; details: HCT-116
[25] = IC50 of insulin release inhibition, rat insulinoma INS-1E line, 5 mM glucose, cell-based (AID 1117331); type: functional
[26] = cells; type: functional, cell-based; details: INS-1E

Metabotropic glutamate receptor 7, sequence (Q14831 whole entry): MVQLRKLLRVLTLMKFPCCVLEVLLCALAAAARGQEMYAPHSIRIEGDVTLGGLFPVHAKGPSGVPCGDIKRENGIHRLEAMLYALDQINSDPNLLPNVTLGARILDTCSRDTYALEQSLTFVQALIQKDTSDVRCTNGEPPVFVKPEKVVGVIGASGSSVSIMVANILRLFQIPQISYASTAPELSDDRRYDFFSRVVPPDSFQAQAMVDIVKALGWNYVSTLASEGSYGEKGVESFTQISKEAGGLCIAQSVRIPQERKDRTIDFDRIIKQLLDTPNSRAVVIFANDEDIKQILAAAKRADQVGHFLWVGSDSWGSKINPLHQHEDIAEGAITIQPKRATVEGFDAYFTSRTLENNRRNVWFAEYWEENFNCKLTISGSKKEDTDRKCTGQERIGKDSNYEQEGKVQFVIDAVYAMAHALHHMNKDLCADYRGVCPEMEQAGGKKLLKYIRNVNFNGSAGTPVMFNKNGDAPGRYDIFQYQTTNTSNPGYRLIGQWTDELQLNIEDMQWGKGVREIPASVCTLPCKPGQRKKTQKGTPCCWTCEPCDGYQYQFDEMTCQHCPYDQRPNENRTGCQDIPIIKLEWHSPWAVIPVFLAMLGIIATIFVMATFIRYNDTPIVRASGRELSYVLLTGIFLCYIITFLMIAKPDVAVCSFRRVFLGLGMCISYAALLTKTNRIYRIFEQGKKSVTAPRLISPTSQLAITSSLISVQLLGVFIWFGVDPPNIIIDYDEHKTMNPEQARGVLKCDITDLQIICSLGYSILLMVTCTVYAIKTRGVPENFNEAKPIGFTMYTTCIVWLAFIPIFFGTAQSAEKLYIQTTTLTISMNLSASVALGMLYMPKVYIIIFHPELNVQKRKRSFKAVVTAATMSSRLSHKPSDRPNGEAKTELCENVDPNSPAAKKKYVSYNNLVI
NS3, sequence (A3EZJ3 whole entry): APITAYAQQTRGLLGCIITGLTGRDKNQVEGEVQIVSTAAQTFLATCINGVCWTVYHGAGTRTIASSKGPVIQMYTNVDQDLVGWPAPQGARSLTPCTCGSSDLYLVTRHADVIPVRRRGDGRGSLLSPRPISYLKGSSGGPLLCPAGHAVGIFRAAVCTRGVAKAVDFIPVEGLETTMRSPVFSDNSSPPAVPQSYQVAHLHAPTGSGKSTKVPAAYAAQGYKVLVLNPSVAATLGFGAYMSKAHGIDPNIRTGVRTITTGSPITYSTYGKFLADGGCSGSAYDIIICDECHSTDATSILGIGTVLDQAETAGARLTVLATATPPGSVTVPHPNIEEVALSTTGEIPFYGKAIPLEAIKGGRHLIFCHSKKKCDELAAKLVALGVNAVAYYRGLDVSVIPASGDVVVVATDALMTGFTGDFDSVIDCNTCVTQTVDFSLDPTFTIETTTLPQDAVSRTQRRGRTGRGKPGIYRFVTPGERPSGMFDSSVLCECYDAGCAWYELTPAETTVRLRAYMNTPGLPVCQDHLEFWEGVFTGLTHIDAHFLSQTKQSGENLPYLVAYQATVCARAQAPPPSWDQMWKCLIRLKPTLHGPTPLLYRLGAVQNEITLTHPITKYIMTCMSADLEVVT
Paired box protein Pax-8, sequence (Q06710 whole entry): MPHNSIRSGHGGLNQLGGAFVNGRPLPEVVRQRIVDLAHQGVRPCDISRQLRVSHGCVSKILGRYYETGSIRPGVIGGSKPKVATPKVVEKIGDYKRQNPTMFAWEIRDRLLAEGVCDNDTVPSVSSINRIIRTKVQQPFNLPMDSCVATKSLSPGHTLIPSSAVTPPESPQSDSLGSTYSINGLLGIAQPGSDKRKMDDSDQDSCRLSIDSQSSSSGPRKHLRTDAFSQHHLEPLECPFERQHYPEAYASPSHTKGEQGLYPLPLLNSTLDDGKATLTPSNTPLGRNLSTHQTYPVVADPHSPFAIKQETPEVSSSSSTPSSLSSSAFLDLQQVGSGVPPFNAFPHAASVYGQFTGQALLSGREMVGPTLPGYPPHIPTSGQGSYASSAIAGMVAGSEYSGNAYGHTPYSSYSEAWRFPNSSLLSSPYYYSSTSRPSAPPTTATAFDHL

Cc1ccc(S(=O)(=O)Nc2ccc3c(c2)C(=O)N([C@H](C)CO)C[C@@H](C)[C@H](CN(C)S(=O)(=O)c2ccccc2)OCCCC[C@H](C)O3)cc1
AC50 [1]: > 70 µM (inactive)
AC50 [2]: 8.05 µM (active)
AC50 [3]: 29.5 µM (active)

Oc1ccc(CCNC(c2ccccc2)c2ccccc2)cc1O
IC50 [4]: 17 µM (inactive)

C[C@@H]1CCCCO[C@@H](CN(C)S(=O)(=O)c2ccc(Cl)cc2)[C@@H](C)CN([C@@H](C)CO)C(=O)c2cc(NC(=O)Nc3ccc(F)cc3)ccc2O1
AC50 [5]: 51.4 µM (active)

Fc1ccc(Cn2cc(CSc3nnc(-c4ccc(F)cc4)o3)nn2)cc1
IC90 [6]: 1 µM (active)
IC90 [7]: 1 µM (active)
AC50 [8]: 30.8 µM (active)

Cc1c(C(=O)O)cccc1-n1c(C)ccc1C
IC50 [9]: 34.5 µM (inactive)

CO[C@@H]1CN(C)C(=O)c2cc(NC(=O)Nc3cc(Cl)cc(Cl)c3)ccc2OC[C@@H](C)NC[C@@H]1C
AC50 [10]: 23.8 µM (active)
AC50 [11]: 36.7 µM (active)

CC(=O)Nc1ccc(SCC(=O)c2cc(C)n(-c3nc(C)cs3)c2C)cc1
EC50 [12]: 10 µM (active)

COc1ccc(C(=O)NC2=C(c3ccc(OC)cc3)C(=O)c3ccccc3C2=O)cc1
AC50 [13]: 13.3 µM (active)
AC50 [14]: 20.1 µM (active)

CCCCC(CC)CNC(=N)NC(=N)NCCCCCCNC(=N)NC(=N)NCC(CC)CCCC (stereo unspecified) [ALEXIDINE DIHYDROCHLORIDE]
IC50 [15]: > 10 µM (inactive)
IC50 [16]: > 10 µM (inactive)
IC50 [17]: 4.1 nM (active)
IC50 [18]: 30.2 nM (active)
IC50 [19]: 19.7 nM (active)
IC50 [20]: 223 nM (active)
IC50 [21]: 710 nM (active)
IC50 [22]: 333 nM (active)
IC50 [23]: 94.1 nM (active)
IC50 [24]: 396 nM (active)

CC(C)[C@H]1CC[C@H](C(=O)N[C@H](Cc2ccccc2)C(=O)O)CC1 [NATEGLINIDE]
IC50 [25]: 7.07 µM (inactive)
IC50 [26]: > 33.3 µM (inactive)
